Assays:
Surinam grass = test: Test C pre-/postemergence herbicide test; type: in vivo, Urochloa decumbens
In short: (§1)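 Pre/post spray; non-phytotoxic solvent + surfactant. Post-timing 1–4 leaves, 2–18 cm. Read-out: visual % control vs untreated, day 12–14, greenhouse.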

velvetleaf = test: Test C pre-/postemergence herbicide test; type: in vivo, Abutilon theophrasti
In short: as §1

cocklebur = test: Test C pre-/postemergence herbicide test; type: in vivo, Xanthium strumarium; conditions: for Cocklebur plant response rating: 500 g ai/ha
In short: as §1

morningglory = test: Test C pre-/postemergence herbicide test; type: in vivo, Ipomoea coccinea; parameters: key to Plant response rating, Morningglory: 0 = no effect, 100 = complete control
In short: as §1

eastern black nightshade = test: Test C pre-/postemergence herbicide test; type: in vivo, Solanum ptycanthum; conditions: for Plant response rating (0 = no effect, 100 = complete control), Nightshade / Plant response rating, Nightshade: preemergence
In short: as §1

corn = test: Test C pre-/postemergence herbicide test; type: in vivo, Zea mays
In short: as §1

johnsongrass = test: Test C pre-/postemergence herbicide test; type: in vivo, Sorghum halepense
In short: as §1

chickweed = test: Test C postemergence herbicide test; type: in vivo, Stellaria media; conditions: for Chickweed plant response rating: 500 g ai/ha
In short: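 Scoring by eye, 12–14 days post-treatment, greenhouse-held plants vs. controls; 0 no effect, 100 complete control. Sprayed at 1–4 leaves (2–18 cm); paddy barnyardgrass at 2 leaves, flooded.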

pigweed = test: Test C pre-/postemergence herbicide test; type: in vivo, Amaranthus retroflexus
In short: as §1

[1] = 125 g ai/ha, scale 0 (no effect) to 100 (complete control), visual, 12 to 14 days, preemergence
[2] = 250 g ai/ha, scale 0 to 100 (0 no effect, 100 complete control), visual, 12 to 14 days, preemergence
[3] = Postemergence, 250 g ai/ha, scale 0 to 100, 0 no effect, 100 complete control
[4] = Preemergence, 500 g ai/ha, scale 0 to 100, 0 no effect, 100 complete control
[5] = postemergence, 62 g ai/ha, scale 0 to 100
[6] = Postemergence, 500 g ai/ha, scale 0 to 100
[7] = Postemergence, 125 g ai/ha, scale 0 to 100, 0 no effect, 100 complete control
[8] = Preemergence, scale 0 to 100, 0 no effect, 100 complete control
[9] = 125 g ai/ha, scale 0 (no effect) to 100 (complete control), visual, 12 to 14 days
[10] = 62 g ai/ha, preemergence, scale 0 to 100
[11] = 250 g ai/ha, scale 0-100, preemergence
[12] = 500 g ai/ha, scale 0 to 100 (0 no effect, 100 complete control), visual, 12 to 14 days, preemergence
[13] = postemergence, 125 g ai/ha, scale 0 to 100
[14] = postemergence, 31 g ai/ha, scale 0 to 100

C#CCn1nc(C(C)(C)C)cc1C(=O)Nc1cccc(C(=O)NCC)c1 [Compound 50]
Plant response rating (0 = no effect, 100 = complete control), Surinam Grass (Surinam grass; 62 g ai/ha, preemergence): 0 | Plant response rating, Surinam Grass (Surinam grass; [1]): 10 | Plant response rating, Surinam Grass (Surinam grass; [2]): 80 | Plant response rating, Surinam Grass (Surinam grass; [3]): 50 | Surinam Grass plant response rating (Surinam grass; [4]): 85 | Plant response rating, Surinam Grass (Surinam grass; [5]): 10 | Plant response rating (0 = no effect, 100 = complete control), Velvetleaf (velvetleaf; 62 g ai/ha, preemergence): 0 | Plant response rating, Velvetleaf (velvetleaf; [1]): 5 | Plant response rating, Velvetleaf (velvetleaf; [2]): 5 | Velvetleaf plant response rating (velvetleaf; [6]): 100 | Plant response rating, Velvetleaf (velvetleaf; [3]): 100 | Velvetleaf plant response rating (velvetleaf; [4]): 5 | Plant response rating, Velvetleaf (velvetleaf; [5]): 100 | Plant response rating (0 = no effect, 100 = complete control), Cocklebur (cocklebur; 62 g ai/ha, preemergence): 0 | Plant response rating, Cocklebur (cocklebur; [1]): 10 | Plant response rating, Cocklebur (cocklebur; [2]): 80 | Cocklebur plant response rating (cocklebur; Postemergence, scale 0 to 100): 10 | Plant response rating, Cocklebur (cocklebur; [7]): 10 | Plant response rating, Cocklebur (cocklebur; [3]): 10 | Cocklebur plant response rating (cocklebur; [8]): 80 | Plant response rating, Cocklebur (cocklebur; [5]): 10 | Plant response rating (0 = no effect, 100 = complete control), Morningglory (morningglory; 62 g ai/ha, preemergence): 0 | Plant response rating, Morningglory (morningglory; [1]): 0 | Plant response rating, Morningglory (morningglory; [2]): 0 | Morningglory plant response rating (morningglory; [6]): 10 | Plant response rating, Morningglory (morningglory; [3]): 0 | Morningglory plant response rating (morningglory; [4]): 0 | Plant response rating, Morningglory (morningglory; [5]): 0 | Plant response rating (0 = no effect, 100 = complete control), Nightshade (eastern black nightshade; 62 g ai/ha): 0 | Plant response rating, Nightshade (eastern black nightshade; [9]): 5 | Plant response rating, Nightshade (eastern black nightshade; 250 g ai/ha, scale 0 to 100 (0 no effect, 100 complete control), visual, 12 to 14 days): 80 | Nightshade plant response rating (eastern black nightshade; [4]): 95 | Plant response rating (0 = no effect, 100 = complete control), Corn (corn; 62 g ai/ha, preemergence): 0 | Plant response rating, Corn (corn; [1]): 0 | Plant response rating, Corn (corn; [2]): 0 | Corn plant response rating (corn; [6]): 85 | Plant response rating, Corn (corn; [7]): 80 | Plant response rating, Corn (corn; [3]): 85 | Corn plant response rating (corn; [4]): 10 | Plant response rating, Corn (corn; [5]): 20 | Plant response rating (0 = no effect, 100 = complete control), Johnsongrass (johnsongrass; 62 g ai/ha, preemergence): 0 | Plant response rating, Johnsongrass (johnsongrass; [2]): 0 | Johnsongrass plant response rating (johnsongrass; [6]): 0 | Plant response rating, Johnsongrass (johnsongrass; [7]): 0 | Plant response rating, Johnsongrass (johnsongrass; [3]): 0 | Johnsongrass plant response rating (johnsongrass; [4]): 0 | Plant response rating, Johnsongrass (johnsongrass; [5]): 0 | Chickweed plant response rating (chickweed; Postemergence, scale 0 to 100): 0 | Plant response rating, Chickweed (chickweed; [7]): 0 | Plant response rating, Chickweed (chickweed; [3]): 0 | Plant response rating, Chickweed (chickweed; [5]): 0 | Plant response rating (0 = no effect, 100 = complete control), Pigweed (pigweed; 62 g ai/ha, preemergence): 90 | Plant response rating, Pigweed (pigweed; [1]): 90 | Plant response rating, Pigweed (pigweed; [2]): 95 | Pigweed plant response rating (pigweed; [6]): 100 | Plant response rating, Pigweed (pigweed; [3]): 100 | Pigweed plant response rating (pigweed; [4]): 95 | Plant response rating, Pigweed (pigweed; [5]): 50

CCn1nc(C(C)(C)C)cc1C(=O)Nc1cccc(OC(F)F)c1 [Compound 332]
Plant response rating, Surinam Grass (Surinam grass; [10]): 5 | Plant response rating, Surinam Grass (Surinam grass; [11]): 10 | Plant response rating, Surinam Grass (Surinam grass; [12]): 15 | Surinam Grass plant response rating (Surinam grass; [6]): 30 | Plant response rating, Surinam Grass (Surinam grass; [3]): 10 | Plant response rating, Surinam Grass (Surinam grass; [13]): 5 | Plant response rating, Surinam Grass (Surinam grass; [5]): 5 | Plant response rating, Velvetleaf (velvetleaf; [10]): 40 | Plant response rating, Velvetleaf (velvetleaf; [11]): 45 | Plant response rating, Velvetleaf (velvetleaf; [12]): 70 | Velvetleaf plant response rating (velvetleaf; [6]): 90 | Plant response rating, Velvetleaf (velvetleaf; [3]): 85 | Plant response rating, Velvetleaf (velvetleaf; [13]): 60 | Plant response rating, Velvetleaf (velvetleaf; [5]): 40 | Plant response rating, Cocklebur (cocklebur; [10]): 0 | Plant response rating, Cocklebur (cocklebur; [1]): 0 | Plant response rating, Cocklebur (cocklebur; [11]): 0 | Cocklebur plant response rating (cocklebur; Postemergence, scale 0 to 100): 15 | Plant response rating, Cocklebur (cocklebur; [3]): 10 | Cocklebur plant response rating (cocklebur; [8]): 0 | Plant response rating, Cocklebur (cocklebur; [13]): 10 | Plant response rating, Cocklebur (cocklebur; [5]): 5 | Plant response rating, Morningglory (morningglory; [10]): 0 | Plant response rating, Morningglory (morningglory; [1]): 0 | Plant response rating, Morningglory (morningglory; [11]): 0 | Plant response rating, Morningglory (morningglory; [12]): 0 | Plant response rating, Morningglory (morningglory; [3]): 80 | Plant response rating, Morningglory (morningglory; [13]): 10 | Plant response rating, Morningglory (morningglory; [5]): 5 | Plant response rating, Nightshade (eastern black nightshade; 62 g ai/ha, scale 0 to 100): 20 | Plant response rating, Nightshade (eastern black nightshade; [9]): 90 | Plant response rating, Nightshade (eastern black nightshade; 250 g ai/ha, scale 0-100): 95 | Plant response rating, Nightshade (eastern black nightshade; 500 g ai/ha, scale 0 to 100 (0 no effect, 100 complete control), visual, 12 to 14 days): 100 | Plant response rating, Corn (corn; [10]): 0 | Plant response rating, Corn (corn; [1]): 0 | Plant response rating, Corn (corn; [11]): 0 | Plant response rating, Corn (corn; [12]): 5 | Corn plant response rating (corn; [6]): 5 | Plant response rating, Corn (corn; [3]): 5 | Plant response rating, Corn (corn; [13]): 0 | Plant response rating, Corn (corn; [5]): 0 | Plant response rating, Johnsongrass (johnsongrass; [10]): 0 | Plant response rating, Johnsongrass (johnsongrass; [1]): 10 | Plant response rating, Johnsongrass (johnsongrass; [11]): 50 | Plant response rating, Johnsongrass (johnsongrass; [12]): 80 | Johnsongrass plant response rating (johnsongrass; [6]): 5 | Plant response rating, Johnsongrass (johnsongrass; [3]): 5 | Plant response rating, Johnsongrass (johnsongrass; [13]): 5 | Plant response rating, Johnsongrass (johnsongrass; [5]): 0 | Chickweed plant response rating (chickweed; Postemergence, scale 0 to 100): 100 | Plant response rating, Chickweed (chickweed; [3]): 100 | Plant response rating, Chickweed (chickweed; [13]): 100 | Plant response rating, Chickweed (chickweed; [5]): 60 | Plant response rating, Pigweed (pigweed; [10]): 100 | Plant response rating, Pigweed (pigweed; [1]): 100 | Plant response rating, Pigweed (pigweed; [11]): 100 | Plant response rating, Pigweed (pigweed; [12]): 100 | Pigweed plant response rating (pigweed; [6]): 95 | Plant response rating, Pigweed (pigweed; [3]): 95 | Plant response rating, Pigweed (pigweed; [13]): 90 | Plant response rating, Pigweed (pigweed; [5]): 85

CCOC(=O)c1cccc(NC(=O)c2nn(C(C)(C)CC)nc2CC)c1 [Compound 375]
Plant response rating, Surinam Grass (Surinam grass; [10]): 55 | Plant response rating (0 = no effect, 100 = complete control), Surinam Grass (Surinam grass; 125 g ai/ha, preemergence): 75 | Plant response rating, Surinam Grass (Surinam grass; [11]): 80 | Plant response rating, Surinam Grass (Surinam grass; [5]): 20 | Plant response rating, Velvetleaf (velvetleaf; [10]): 0 | Plant response rating (0 = no effect, 100 = complete control), Velvetleaf (velvetleaf; 125 g ai/ha, preemergence): 30 | Plant response rating, Velvetleaf (velvetleaf; [11]): 80 | Plant response rating, Velvetleaf (velvetleaf; [13]): 85 | Plant response rating, Velvetleaf (velvetleaf; [5]): 60 | Plant response rating, Cocklebur (cocklebur; [10]): 0 | Plant response rating (0 = no effect, 100 = complete control), Cocklebur (cocklebur; 125 g ai/ha, preemergence): 0 | Plant response rating, Cocklebur (cocklebur; [11]): 0 | Plant response rating, Cocklebur (cocklebur; [3]): 15 | Plant response rating, Cocklebur (cocklebur; [13]): 10 | Plant response rating, Cocklebur (cocklebur; [14]): 0 | Plant response rating, Cocklebur (cocklebur; [5]): 10 | Plant response rating, Morningglory (morningglory; [10]): 0 | Plant response rating (0 = no effect, 100 = complete control), Morningglory (morningglory; 125 g ai/ha, preemergence): 0 | Plant response rating, Morningglory (morningglory; [11]): 5 | Plant response rating, Morningglory (morningglory; [5]): 10 | Plant response rating, Nightshade (eastern black nightshade; 62 g ai/ha, scale 0 to 100): 50 | Plant response rating (0 = no effect, 100 = complete control), Nightshade (eastern black nightshade; 125 g ai/ha): 50 | Plant response rating, Nightshade (eastern black nightshade; 250 g ai/ha, scale 0-100): 55 | Plant response rating, Corn (corn; [10]): 0 | Plant response rating (0 = no effect, 100 = complete control), Corn (corn; 125 g ai/ha, preemergence): 5 | Plant response rating, Corn (corn; [11]): 5 | Plant response rating, Corn (corn; [3]): 20 | Plant response rating, Corn (corn; [13]): 15 | Plant response rating, Corn (corn; [5]): 10 | Plant response rating, Johnsongrass (johnsongrass; [10]): 0 | Plant response rating (0 = no effect, 100 = complete control), Johnsongrass (johnsongrass; 125 g ai/ha, preemergence): 5 | Plant response rating, Johnsongrass (johnsongrass; [11]): 5 | Plant response rating, Johnsongrass (johnsongrass; [3]): 10 | Plant response rating, Johnsongrass (johnsongrass; [13]): 5 | Plant response rating, Johnsongrass (johnsongrass; [5]): 5 | Plant response rating, Chickweed (chickweed; [3]): 100 | Plant response rating, Chickweed (chickweed; [13]): 100 | Plant response rating, Chickweed (chickweed; [14]): 100 | Plant response rating, Chickweed (chickweed; [5]): 100 | Plant response rating, Pigweed (pigweed; [10]): 50 | Plant response rating (0 = no effect, 100 = complete control), Pigweed (pigweed; 125 g ai/ha, preemergence): 50 | Plant response rating, Pigweed (pigweed; [11]): 100 | Plant response rating, Pigweed (pigweed; [5]): 80

— patent publication US20060069132A1, “Azolecarboxamide herbicides” (priority 2004, published 2006)
